± gives the uncertainty stated by the source.
Experiment: xn = mol fraction of the nth substance listed

C=COC(C)=O + CCCCO
303.15 K, 101.33 kPa
Settings	viscosity [mPa·s]
x1 = 0.1008	1.622 ± 0.01
x1 = 0.1999	1.211 ± 0.008
x1 = 0.3008	0.944 ± 0.006
x1 = 0.3993	0.768 ± 0.005
x1 = 0.5055	0.634 ± 0.004
x1 = 0.6002	0.547 ± 0.004
x1 = 0.6998	0.482 ± 0.004
x1 = 0.7997	0.433 ± 0.003
x1 = 0.8749	0.405 ± 0.003

CC(C)c1ccccc1 + CCCCO
viscosity [mPa·s], 101 kPa
Settings	298.15 K	303.15 K	308.15 K	313.15 K	318.15 K	323.15 K
x1 = 0.0989	2.069 ± 0.053	–	1.657 ± 0.043	–	–	–
x1 = 0.1844	1.723 ± 0.044	–	1.398 ± 0.036	–	–	–
x1 = 0.2877	1.417 ± 0.036	–	1.135 ± 0.029	–	–	–
x1 = 0.3941	1.188 ± 0.031	–	0.9456 ± 0.024	–	–	–
x1 = 0.5189	1.001 ± 0.026	–	0.8025 ± 0.021	–	–	–
x1 = 0.6544	0.8693 ± 0.022	–	0.7291 ± 0.019	–	–	–
x1 = 0.796	0.7776 ± 0.02	–	0.7157 ± 0.018	–	–	–
x2 = 0.1001	–	0.6982 ± 0.0056	0.6545 ± 0.0053	0.6143 ± 0.005	0.5795 ± 0.0047	0.5481 ± 0.0045
x2 = 0.1998	–	0.7295 ± 0.0056	0.6815 ± 0.0053	0.6366 ± 0.005	0.5969 ± 0.0047	0.5613 ± 0.0045
x2 = 0.3007	–	0.7788 ± 0.0058	0.7225 ± 0.0054	0.6725 ± 0.0051	0.6285 ± 0.0048	0.5885 ± 0.0046
x2 = 0.3997	–	0.8423 ± 0.0061	0.7784 ± 0.0057	0.7209 ± 0.0053	0.6696 ± 0.005	0.6249 ± 0.0047
x2 = 0.4999	–	0.9355 ± 0.0065	0.8588 ± 0.006	0.7901 ± 0.0056	0.7288 ± 0.0052	0.6767 ± 0.0049
x2 = 0.6	–	1.068 ± 0.0072	0.9725 ± 0.0066	0.8867 ± 0.0061	0.8131 ± 0.0056	0.7485 ± 0.0052
x2 = 0.6992	–	1.252 ± 0.0081	1.129 ± 0.0074	1.022 ± 0.0067	0.9275 ± 0.0062	0.848 ± 0.0057
x2 = 0.7999	–	1.474 ± 0.0093	1.323 ± 0.0084	1.187 ± 0.0076	1.068 ± 0.0069	0.9682 ± 0.0063
x2 = 0.9006	–	1.837 ± 0.011	1.629 ± 0.01	1.452 ± 0.009	1.298 ± 0.0081	1.168 ± 0.0073

CCCCOC(C)=O + CCCCO
viscosity [mPa·s], 101 kPa
Settings	x1 = 0.1	x1 = 0.1944	x1 = 0.2974	x1 = 0.3991	x1 = 0.4988	x1 = 0.6008	x1 = 0.6913	x1 = 0.7961	x1 = 0.8993
298.15 K	2.212 ± 0.024	1.921 ± 0.02	1.641 ± 0.017	1.407 ± 0.014	1.212 ± 0.012	1.041 ± 0.01	0.923 ± 0.009	0.813 ± 0.008	0.727 ± 0.008
303.15 K	1.962 ± 0.022	1.713 ± 0.018	1.475 ± 0.015	1.262 ± 0.013	1.091 ± 0.011	0.948 ± 0.01	0.839 ± 0.009	0.755 ± 0.008	0.688 ± 0.008
308.15 K	1.75 ± 0.02	1.532 ± 0.017	1.31 ± 0.014	1.146 ± 0.012	0.993 ± 0.01	0.876 ± 0.009	0.789 ± 0.008	0.703 ± 0.008	0.646 ± 0.007
313.15 K	1.558 ± 0.018	1.365 ± 0.015	1.184 ± 0.013	1.037 ± 0.011	0.908 ± 0.01	0.806 ± 0.009	0.731 ± 0.008	0.662 ± 0.008	0.619 ± 0.007

CCCN + CCCCO
Settings	viscosity [mPa·s]
298.15 K, 100 kPa, x2 = 0.0488	0.3946 ± 0.0045
298.15 K, 100 kPa, x2 = 0.0977	0.4367 ± 0.005
298.15 K, 100 kPa, x2 = 0.2026	0.552 ± 0.0063
298.15 K, 100 kPa, x2 = 0.2966	0.6772 ± 0.0076
298.15 K, 100 kPa, x2 = 0.4	0.8384 ± 0.0094
298.15 K, 100 kPa, x2 = 0.4939	1.003 ± 0.011
298.15 K, 100 kPa, x2 = 0.58	1.166 ± 0.013
298.15 K, 100 kPa, x2 = 0.645	1.305 ± 0.015
298.15 K, 100 kPa, x2 = 0.7024	1.45 ± 0.016
298.15 K, 100 kPa, x2 = 0.7958	1.721 ± 0.019
298.15 K, 100 kPa, x2 = 0.9025	2.113 ± 0.024
303.15 K, 101 kPa, x1 = 0.01186	2.214 ± 0.015
303.15 K, 101 kPa, x1 = 0.02208	2.185 ± 0.014
303.15 K, 101 kPa, x1 = 0.03071	2.16 ± 0.014
303.15 K, 101 kPa, x1 = 0.04153	2.133 ± 0.014
303.15 K, 101 kPa, x1 = 0.04894	2.113 ± 0.014
303.15 K, 101 kPa, x1 = 0.06228	2.083 ± 0.014
303.15 K, 101 kPa, x1 = 0.07291	2.053 ± 0.014
303.15 K, 101 kPa, x1 = 0.07608	2.038 ± 0.013
303.15 K, 101 kPa, x1 = 0.08641	2.013 ± 0.013
303.15 K, 101.33 kPa, x1 = 0.0967	2.02 ± 0.013
303.15 K, 101.33 kPa, x1 = 0.186	1.771 ± 0.011
303.15 K, 101.33 kPa, x1 = 0.2863	1.501 ± 0.0094
303.15 K, 101.33 kPa, x1 = 0.4131	1.177 ± 0.0075
303.15 K, 101.33 kPa, x1 = 0.514	0.9669 ± 0.0062
303.15 K, 101.33 kPa, x1 = 0.6196	0.7833 ± 0.0051
303.15 K, 101.33 kPa, x1 = 0.7178	0.6396 ± 0.0044
303.15 K, 101.33 kPa, x1 = 0.8121	0.5233 ± 0.0039
303.15 K, 101.33 kPa, x1 = 0.9017	0.433 ± 0.0035
313.15 K, 101.33 kPa, x1 = 0.0967	1.617 ± 0.01
313.15 K, 101.33 kPa, x1 = 0.186	1.427 ± 0.0091
313.15 K, 101.33 kPa, x1 = 0.2863	1.218 ± 0.0078
313.15 K, 101.33 kPa, x1 = 0.4131	0.9675 ± 0.0063
313.15 K, 101.33 kPa, x1 = 0.514	0.7924 ± 0.0052
313.15 K, 101.33 kPa, x1 = 0.6196	0.6548 ± 0.0045
313.15 K, 101.33 kPa, x1 = 0.7178	0.5412 ± 0.004
313.15 K, 101.33 kPa, x1 = 0.8121	0.4506 ± 0.0036
313.15 K, 101.33 kPa, x1 = 0.9017	0.3783 ± 0.0033

Oc1ccccc1Cl + CCCCOCCO
viscosity [mPa·s], 101 kPa
Settings	x1 = 0.1256	x1 = 0.2442	x1 = 0.3565	x1 = 0.4628	x1 = 0.5638	x1 = 0.6597	x1 = 0.751	x1 = 0.8379	x1 = 0.9208
303.15 K	3.306 ± 0.074	4.125 ± 0.091	4.745 ± 0.1	5.08 ± 0.11	5.13 ± 0.11	4.92 ± 0.11	4.5 ± 0.098	3.975 ± 0.088	3.396 ± 0.076
308.15 K	2.934 ± 0.066	3.49 ± 0.077	3.876 ± 0.086	4.084 ± 0.09	4.093 ± 0.09	3.935 ± 0.087	3.654 ± 0.081	3.302 ± 0.074	2.895 ± 0.065
313.15 K	2.604 ± 0.059	2.992 ± 0.067	3.267 ± 0.073	3.404 ± 0.076	3.405 ± 0.076	3.298 ± 0.073	3.106 ± 0.069	2.847 ± 0.064	2.563 ± 0.058
318.15 K	2.282 ± 0.052	2.554 ± 0.058	2.738 ± 0.062	2.82 ± 0.063	2.833 ± 0.064	2.754 ± 0.062	2.624 ± 0.059	2.45 ± 0.056	2.254 ± 0.051

CCCN + CCCCOCCOCCO
298.15 K, 101 kPa
Settings	viscosity [mPa·s]
x2 = 0.0104	0.381 ± 0.007
x2 = 0.0212	0.404 ± 0.007
x2 = 0.0381	0.44 ± 0.007
x2 = 0.0898	0.562 ± 0.008
x2 = 0.1063	0.602 ± 0.008
x2 = 0.129	0.668 ± 0.008
x2 = 0.164	0.78 ± 0.009
x2 = 0.1944	0.884 ± 0.009
x2 = 0.2231	1.003 ± 0.01
x2 = 0.2623	1.178 ± 0.011
x2 = 0.3079	1.4 ± 0.012
x2 = 0.327	1.505 ± 0.013
x2 = 0.3856	1.851 ± 0.015
x2 = 0.4114	2.011 ± 0.016
x2 = 0.4443	2.23 ± 0.017
x2 = 0.4782	2.46 ± 0.019
x2 = 0.5424	2.9 ± 0.022
x2 = 0.5729	3.115 ± 0.023
x2 = 0.6163	3.404 ± 0.026
x2 = 0.6419	3.571 ± 0.027
x2 = 0.6779	3.79 ± 0.028
x2 = 0.7205	4.031 ± 0.03
x2 = 0.7508	4.193 ± 0.031
x2 = 0.7957	4.402 ± 0.033
x2 = 0.8278	4.535 ± 0.034
x2 = 0.8577	4.647 ± 0.034
x2 = 0.8744	4.703 ± 0.035
x2 = 0.9181	4.837 ± 0.036
x2 = 0.9513	4.925 ± 0.036
x2 = 0.9752	4.986 ± 0.037
